According to paper PMC12259270, “Sensory neuron–expressed FGF13 controls nociceptive signaling in diabetic neuropathy models” (The Journal of Clinical Investigation, 2025):
“And” between values parts separate entries of the source, which are not always exact repeats. Equal entries are not always repeated. Residues, ends and D or L forms follow the SMILES beside them. *: point of attachment. Cbz = O=C(OCc1ccccc1)*; NHPh = c1ccc(N*)cc1; OtBu = CC(C)(C)O*

Test system: donor-derived DRG neurons
Experiment: Whole-cell current-clamp, human donor-derived DRG neurons
Format: cell-based
Text: Human donor (hDRG) neurons. Dorsal root ganglia were recovered from consented, de-identified organ and tissue donors at the University of Cincinnati Medical Center following previously described protocols (57, 58). Recovered tissues were transported in oxygenated, ice-cold N-methyl-D-glucamine (NMDG) artificial […] (aCSF, mM): 93 NMDG, 2.5 KCl, 1.25 NaH2PO4, 30 NaHCO3, 20 HEPES, 25 Glucose, 5 Ascorbic acid, 2 Thiourea, 3 Na+ pyruvate, 10 MgSO4, 0.5 CaCl2, 12 N-acetylcysteine, adjusted to pH 7.4 with HCl). hDRGs were isolated from connective tissue, fat, roots, and nerves and then minced into small 1-3 mm pieces which were enzymatically treated with warmed papain (45U) followed by collagenase (4.5 mg/200µl) each for 40 minutes at 37 °C, 5% CO2 in HBSS with 5 mM HEPES (Hanks’ Balanced Salt Solution with 4-2 (2-hydrozyethyl)-1-piperazineethananessulfonic acid; Gibco). Neurons were dissociated by trituration and incubated in warmed Neurobasal A-based DRG media (with penicillin/streptomycin, B27 supplement (Gibco), fetal bovine serum (FBS), and GlutaMAX (Gibco, cat # 35050061), as previously described. Dissociated DRG suspension was plated onto poly-d-lysine (0.01 mg/ml, Sigma) and collagen (1 mg/ml, Sigma) coated coverslips and incubated 2 days. […]
following salts: extracellular (mM): 140 NaCl, 3 KCl, 1 MgCl2, 1 CaCl2, 10 HEPES, 10 glucose, pH 7.3; intracellular (mM): 130 CH3O3 SCs, 1 EGTA, 10 NaCl, 10 HEPES, pH 7.3. Membrane capacitance and series resistance were estimated by the dial settings on the amplifier and compensated for electronically by 70–80%.
Data was acquired at 20 kHz and filtered at 5 kHz before digitization and storage. All experimental parameters were controlled by Clampex 9.2 software (Molecular Devices) and interfaced to the electrophysiological equipment using a Digidata 1300 analog–digital interface (Molecular Devices). […]
μM PW164 or ZL192 in the extracellular solution. The recording solution consisted of the following salts: extracellular (mM): 130 NaCl, 3 KCl, 30 TEA, 0.1 CdCl2 1 MgCl2, 1 CaCl2, 10 HEPES, 10 glucose, pH 7.3; intracellular (mM): 140 CsF, 1.1 EGTA, 10 NaCl, 10 HEPES, pH 7.3.
Human donor DRG neurons: Coverslips were transferred to a recording chamber and bathed in extracellular solution (mM): 145 NaCl, 3 KCl, 2.5 CaCl2, 1.2 MgCl2, 10 HEPES, 7 glucose, 0.05 CdCl2 adjusted to pH 7.4 with NaOH, with a flow rate of 1-2 ml/min. Borosilicate glass pipettes with the resistance of 1.5 to 2.5 MΩ were made using a P-1000 micropipette puller (Sutter Instrument, Novato, CA, USA). The intracellular solution contained (mM): 130 K-gluconate, 5 KCl, 5 NaCl, 2 MgCl2, 0.3 Ethylene glycol-bis(2-aminoethylether)- NNN’N’-tetraacetic acid (EGTA), 10 HEPES, 2 Na ATP, adjusted to pH 7.3 with KOH and 294 mOsm with sucrose. Coverslips were pre-incubated in 50 µM PW164 or ZL192 or 0.1% DMSO vehicle for 1 hour before recording. Recordings were obtained on MultiClamp 700B and Digidata 1550A (Molecular Devices) and sampled […]
at 20 kHz. Neurons were investigated if resting membrane potential was below -45 mV. Neurons were held under current clamp, and membrane properties and action potential discharge were assessed as previously described […]
Human Dorsal Root Ganglia Procurement
Human dorsal root ganglia (DRGs) procurement procedures were performed in accordance with the Institutional Review Boards at the University of Texas at Dallas. DRGs were procured from organ donors through a collaboration with the Southwest Transplant Alliance (STA). DRGs were frozen in powdered dry ice at the time of extraction and then stored in a -80°C freezer until use. Details on tissue procurement procedures, quality metrics, and tissue preparation can be found on protocols.io doi:10.17504/protocols.io.kqdg32qr1v25/v1 (2024).
The medical history of each donor was provided by the STA and is a summary of information from hospital records and family members. Donor demographics, condition (non-diabetic vs diabetic painful neuropathy […]

[1] = 50 µM, 1 hour preincubation, relative to control

SMILES | action potential firing [1] | rheobase to fire an action potential [1] | Suppl Fig. S16A, 1x (single cells) | Suppl Fig. S16A, 3x (3x, single cells)
COC(=O)[C@@H](NC(=O)[C@H](CCC(=O)OC(C)(C)C)NC(=O)[C@H](CC(C)C)NC(=O)[C@@H]1CCCN1C(=O)OCc1ccccc1)C(C)C [PW164] (Cbz-PLE(OtBu)V-OMe) | reduced action potential firing | increased rheobase | 1 | –
CC(=O)N[C@@H](Cc1ccccc1)C(=O)N[C@@H](CC(C)C)C(=O)N1CCC[C@H]1C(=O)N[C@@H](CCCCN)C(=O)Nc1ccccc1 [ZL192] (Ac-FLPK-NHPh) | – | decreased rheobase | 1 | 2 and 1
